# Measurements published in ChEMBL document CHEMBL3045868, “Synthesis and antibacterial activities of para-alkoxy phenyl--ketoaldehyde derivatives” (Med Chem Res, 2013).
# Test system: Staphylococcus aureus
# Experiment: Antibacterial activity against Staphylococcus aureus clinical isolate 7 assessed as growth inhibition after 16 to 18 hr by NCCLS agar dilution method
# Assay type: functional
compound,measurement,value
CO/N=C/CC(=O)c1ccc(OC)cc1,MIC,8 µg/mL
